Reference: patent US20260069523A1, “SKIN CARE COMPOSITION AND USE THEREOF” (NANJING NUTRABUILDING BIO-TECH CO., LTD., priority 2023, published 2026)

How the values were obtained:
TNF-α = assay: Anti-inflammatory test: TNF-α in UVB-stimulated keratinocytes; format: cell-based, human; conditions: UV-B 50 mJ/cm^2 irradiated keratinocytes, 24 h, supernatant, maximum non-cytotoxic dose (combinations: half dose each)
Description: (§1) Cell culture: HaCat, a normal human epidermal keratinocyte (NHEK) cell line, was purchased from Wuhan Saios Biotechnology Co., Ltd. The cells were stored in a humid environment (95% air and 5% carbon dioxide at 37° C.) and cultured in DMEM supplemented with 10% heat inactivated FBS, 2 mM glutamine and 1% penicillin/streptomycin. The culture was harvested and the cell morphology was examined by phase contrast microscope. Cell suspension was counted with a hemocytometer (Marienfeld, Germany) to monitor the number of cells.
(§2) UVB stimulation: Keratinocytes were inoculated into a 12-well plate (50,000 cells/mL) and cultured to a confluency of ˜80%. The cells were washed once with phosphate buffered saline (PBS) at room temperature, 0.5 mL PBS was added to the cells, and then irradiated with ultraviolet rays. The cells were exposed to 50 mJ/cm^2 UV-B (Philips, 311 nm) for 2 minutes. […]
(§3) Detection of inflammatory factors: the standard curve of each cytokine (TNF-α, IL-8, IL-6) were generated by using the reference cytokine samples provided by the kit. […] The absorbance (OD value) was measured by microplate reader at the wavelength of 450 nm, and the concentration was calculated according to the standard curve.

IL-6 = assay: Anti-inflammatory test: IL-6 in UVB-stimulated keratinocytes; format: cell-based, human; conditions: UV-B 50 mJ/cm^2 irradiated keratinocytes, 24 h, supernatant, maximum non-cytotoxic dose (combinations: half dose each)
Description: as §1, §2, §3

IL-8 = assay: Anti-inflammatory test: IL-8 in UVB-stimulated keratinocytes; format: cell-based, human; conditions: UV-B 50 mJ/cm^2 irradiated keratinocytes, 24 h, supernatant, maximum non-cytotoxic dose (combinations: half dose each)
Description: as §1, §2, §3

tyrosinase = assay: Whitening test: inhibition of tyrosinase; conditions: 1 mg/mL sample solutions (combinations mixed 1:1 or 1:1:1), tyrosine substrate, 30° C., absorbance 475 nm

Row | Compound | content of TNF-α (TNF-α) | content of IL-6 (IL-6) | content of IL-8 (IL-8) | inhibition rate on tyrosinase (tyrosinase)
1 | COc1cc(CCC(=O)CC(=O)CCc2ccc(O)c(OC)c2)ccc1O [THC, tetrahydrocurcumin] | about 90 pg/ml | 27 pg/mL | 25 pg/mL | 
2 | C[N+](C)(C)[C@@H](Cc1c[nH]c(=S)[nH]1)C(=O)[O-] [EGT, ergothioneine] | about 95 pg/ml | 28 pg/mL | 23 pg/mL | 68%
